The source of these data is ChEMBL document CHEMBL4265893, “Design, synthesis and biological evaluation of ring A modified 11-keto-boswellic acid derivatives as Pin1 inhibitors with remarkable anti-prostate cancer activity” (Bioorg Med Chem Lett, 2018).

The inhibition is the share of the control response that was lost under treatment. As usually defined, the GI50 is the concentration that inhibits growth by half. Read a low GI50 as more potent growth inhibition. The IC50 is the midpoint of a concentration-inhibition curve.

The target of test [1] is T1, Peptidyl-prolyl cis-trans isomerase NIMA-interacting 1 (Homo sapiens, UniProt Q13526). In words: Inhibition of recombinant N-terminal His6-tagged human Pin1 at 10 uM using Suc-Ala-Glu-cis-Pro-Phe-4-nitroanilide as substrate preincubated for 30 mins followed by substrate addition measured for 90 secs.
T1 sequence (Q13526 whole entry): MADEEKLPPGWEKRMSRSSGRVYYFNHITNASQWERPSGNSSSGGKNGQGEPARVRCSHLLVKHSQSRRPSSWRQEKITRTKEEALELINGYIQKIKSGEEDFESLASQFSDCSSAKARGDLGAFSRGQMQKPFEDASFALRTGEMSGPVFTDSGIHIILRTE
The test system of test [2] is PC-3. In words: Antiproliferative activity against human PC3 cells after 96 hrs by MTT assay. The settings on record: PC-3, 96 h. It is filed as functional. For orientation: Tetrazolium dyes change colour on reduction, which living cells bring about.
Test [3] deals with T1, Peptidyl-prolyl cis-trans isomerase NIMA-interacting 1. In words: Inhibition of recombinant N-terminal His6-tagged human Pin1 using Suc-Ala-Glu-cis-Pro-Phe-4-nitroanilide as substrate preincubated for 30 mins followed by substrate addition measured for 90 secs.
The subject of test [4] is PC-3. The experiment in a line: Cell cycle arrest in human PC3 cells assessed as accumulation at G0/G1 phase at 0.5 uM after 24 hrs by RNase/propidium iodide staining-based flow cytometric analysis (reference value: 55.03%). In kind it is functional. Background: In flow cytometry, cells or beads pass a laser one at a time.
Test [5] concerns PC-3. In words: Induction of apoptosis in human PC3 cells assessed as downregulation of Cyclin D1 expression after 24 hrs by Western blot analysis. It is filed as functional, cell-based.
Test [6] has as its system PC-3. In words: Cell cycle arrest in human PC3 cells assessed as accumulation at G0/G1 phase at 0.25 uM after 24 hrs by RNase/propidium iodide staining-based flow cytometric analysis (reference value: 55.03%). It is filed as functional.
Test [7] relates to PC-3. The experiment in a line: Cell cycle arrest in human PC3 cells assessed as accumulation at G0/G1 phase at 1 uM after 24 hrs by RNase/propidium iodide staining-based flow cytometric analysis (reference value: 55.03%). It is filed as functional.

In the case of `C[C@H]1[C@H](C)CC[C@]2(C)CC[C@]3(C)C(=CC(=O)[C@@H]4[C@@]5(C)CC[C@@H](OC(=O)CNc6ccccc6)[C@](C)(C(=O)O)[C@@H]5CC[C@]43C)[C@H]12`, the inhibition in test [1] turned out to be 46%. Also, the 50% growth inhibitory concentration (GI50) with PC-3 [2] came out at 12.1 µM.
Turning to `C[C@H]1[C@H](C)CC[C@]2(C)CC[C@]3(C)C(=CC(=O)[C@@H]4[C@@]5(C)CC[C@@H](OC(=O)CN(C)c6ccccc6)[C@](C)(C(=O)O)[C@@H]5CC[C@]43C)[C@H]12`, in test [1], the inhibition turned out to be 94%. In the test on PC-3 [2], this molecule yielded a concentration for 50% growth inhibition (GI50) of 13.7 µM. In test [3], the half-maximal inhibitory concentration (IC50) was determined as 1.27 µM.
`COC(=O)[C@@]1(C)c2[nH]nc(C(=O)O)c2C[C@@]2(C)[C@H]1CC[C@]1(C)[C@@H]2C(=O)C=C2[C@@H]3[C@@H](C)[C@H](C)CC[C@]3(C)CC[C@]21C`: in test [1], the inhibition was determined as 56%. Also, in the test on PC-3 [2], growth was halved (GI50) at 37.6 µM.
Consider `C[C@H]1[C@H](C)CC[C@]2(C)CC[C@]3(C)C(=CC(=O)[C@@H]4[C@@]5(C)CC[C@@H](OC(=O)CN6CCN(c7cccc(C(F)(F)F)c7)CC6)[C@](C)(C(=O)O)[C@@H]5CC[C@]43C)[C@H]12`, for which the inhibition in test [1] amounted to 80%. The same molecule registered a concentration for 50% growth inhibition (GI50) with PC-3 [2] of 12.5 µM. In addition, the IC50 in test [3] came out at 2.18 µM.
For `C[C@H]1[C@H](C)CC[C@]2(C)CC[C@]3(C)C(=CC(=O)[C@@H]4[C@@]5(C)Cc6c(C(=O)O)noc6[C@](C)(C(=O)OCc6ccccc6)[C@@H]5CC[C@]43C)[C@H]12`, in test [1], the inhibition came out at 29%. In the test on PC-3 [2], this molecule showed a GI50 of 26.9 µM.
For `C[C@H]1[C@H](C)CC[C@]2(C)CC[C@]3(C)C(=CC(=O)[C@@H]4[C@@]5(C)CC[C@@H](OC(=O)COc6ccc(C(=O)/C=C/c7ccccc7)cc6)[C@](C)(C(=O)O)[C@@H]5CC[C@]43C)[C@H]12`, the inhibition in test [1] was found to be 95%. Growth in the test on PC-3 [2] was halved (GI50) at 8.84 µM. Besides, the IC50 in test [3] stood at 0.97 µM.
As for `COC(=O)[C@@]1(C)C(=O)/C(=C/c2ccc(C(=O)O)cc2)C[C@]2(C)[C@H]3C(=O)C=C4[C@@H]5[C@@H](C)[C@H](C)CC[C@]5(C)CC[C@@]4(C)[C@]3(C)CC[C@@H]12`, the inhibition in test [1] turned out to be 43%. Besides, the 50% growth inhibitory concentration (GI50) in the test on PC-3 [2] is greater than 50 µM.
Turning to `COC(=O)[C@@]1(C)C(=O)/C(=C/C(=O)O)C[C@]2(C)[C@H]3C(=O)C=C4[C@@H]5[C@@H](C)[C@H](C)CC[C@]5(C)CC[C@@]4(C)[C@]3(C)CC[C@@H]12`, the inhibition in test [1] worked out at 51%. In the test with PC-3 [2], the GI50 came out at 8 µM.
As for `C[C@H]1[C@H](C)CC[C@]2(C)CC[C@]3(C)C(=CC(=O)[C@@H]4[C@@]5(C)CC[C@@H](OC(=O)COc6ccccc6)[C@](C)(C(=O)O)[C@@H]5CC[C@]43C)[C@H]12`, the inhibition in test [1] was determined as 35%. Besides, the GI50 in the test on PC-3 [2] was 18.5 µM.
On to `CC(=O)N1N=C(c2ccc(OCC(=O)O[C@@H]3CC[C@@]4(C)[C@@H](CC[C@]5(C)[C@@H]4C(=O)C=C4[C@@H]6[C@@H](C)[C@H](C)CC[C@]6(C)CC[C@]45C)[C@@]3(C)C(=O)O)cc2)CC1c1ccccc1` (some centres undefined), for which the inhibition in test [1] is 32%. Besides, the 50% growth inhibitory concentration (GI50) in the test on PC-3 [2] stood at 9.42 µM.
As for `COc1ccccc1/C=C1\C[C@]2(C)[C@H]3C(=O)C=C4[C@@H]5[C@@H](C)[C@H](C)CC[C@]5(C)CC[C@@]4(C)[C@]3(C)CC[C@H]2[C@@](C)(C(=O)OCc2ccccc2)C1=O`, the inhibition in test [1] is 57%. The molecule also registered a concentration for 50% growth inhibition (GI50) with PC-3 [2] greater than 50 µM.
Regarding `C[C@H]1[C@H](C)CC[C@]2(C)CC[C@]3(C)C(=CC(=O)[C@@H]4[C@@]5(C)C/C(=C\C(=O)O)C(=O)[C@](C)(C(=O)N6CCCCC6)[C@@H]5CC[C@]43C)[C@H]12`, the inhibition in test [1] is 89%. For the same molecule, the GI50 in the test on PC-3 [2] was found to be 7.11 µM. Besides, the IC50 in test [3] stood at 0.55 µM.
As for `COC(=O)[C@@]1(C)c2onc(C(=O)O)c2C[C@@]2(C)[C@H]1CC[C@]1(C)[C@@H]2C(=O)C=C2[C@@H]3[C@@H](C)[C@H](C)CC[C@]3(C)CC[C@]21C`, the inhibition in test [1] is 41%. In the test with PC-3 [2], this molecule had a 50% growth inhibitory concentration (GI50) of 37.6 µM.
For `C[C@H]1[C@H](C)CC[C@]2(C)CC[C@]3(C)C(=CC(=O)[C@@H]4[C@@]5(C)C/C(=C\c6ccc(C(=O)O)cc6)C(=O)[C@](C)(C(=O)OCc6ccccc6)[C@@H]5CC[C@]43C)[C@H]12`, the inhibition in test [1] amounted to 40%. Also, the GI50 with PC-3 [2] is 32.1 µM.
With `C[C@H]1[C@H](C)CC[C@]2(C)CC[C@]3(C)C(=CC(=O)[C@@H]4[C@@]5(C)CC[C@@H](OC(=O)CN6CCCCC6)[C@](C)(C(=O)O)[C@@H]5CC[C@]43C)[C@H]12`, the inhibition in test [1] was determined as 95%. In the test on PC-3 [2], this molecule yielded a GI50 of 11.6 µM. Besides, the IC50 in test [3] is 1.01 µM.
Regarding `C[C@H]1[C@H](C)CC[C@]2(C)CC[C@]3(C)C(=CC(=O)[C@@H]4[C@@]5(C)CC[C@@H](OC(=O)COc6ccc(Oc7ccccc7)cc6)[C@](C)(C(=O)O)[C@@H]5CC[C@]43C)[C@H]12`, the inhibition in test [1] is 90%. The molecule further gave a concentration for 50% growth inhibition (GI50) in the test on PC-3 [2] of 12.5 µM. Moreover, the IC50 in test [3] turned out to be 1.58 µM.
As for `CC1CCN(CC(=O)O[C@@H]2CC[C@@]3(C)[C@@H](CC[C@]4(C)[C@@H]3C(=O)C=C3[C@@H]5[C@@H](C)[C@H](C)CC[C@]5(C)CC[C@]34C)[C@@]2(C)C(=O)O)CC1`, the inhibition in test [1] worked out at 78%. In the test with PC-3 [2], the GI50 amounted to 15.6 µM.
For `C[C@H]1[C@H](C)CC[C@]2(C)CC[C@]3(C)C(=CC(=O)[C@@H]4[C@@]5(C)CC[C@@H](OC(=O)CN(CCO)CCO)[C@](C)(C(=O)O)[C@@H]5CC[C@]43C)[C@H]12` the same measures were 59% and greater than 50 µM.
Regarding `C[C@H]1[C@H](C)CC[C@]2(C)CC[C@]3(C)C(=CC(=O)[C@@H]4[C@@]5(C)C/C(=C\c6ccccc6C(=O)O)C(=O)[C@](C)(C(=O)OCc6ccccc6)[C@@H]5CC[C@]43C)[C@H]12`, the inhibition in test [1] is 94%. In addition, in the test with PC-3 [2], the GI50 was 3.29 µM. In test [3], the IC50 was 0.68 µM.
For `CC(=O)O[C@@H]1CC[C@@]2(C)[C@@H](CC[C@]3(C)[C@@H]2C(=O)C=C2[C@@H]4[C@@H](C)[C@H](C)CC[C@]4(C)CC[C@]23C)[C@@]1(C)C(=O)O` [AKBA] the same measures were 26%, 31.9 µM and 50.4 µM.
Consider `COC(=O)[C@@]1(C)C(=O)/C(=C/c2ccccc2C(=O)O)C[C@]2(C)[C@H]3C(=O)C=C4[C@@H]5[C@@H](C)[C@H](C)CC[C@]5(C)CC[C@@]4(C)[C@]3(C)CC[C@@H]12`, for which the inhibition in test [1] came out at 69%. In the test with PC-3 [2], the GI50 is 15.2 µM.
For `C[C@H]1[C@H](C)CC[C@]2(C)CC[C@]3(C)C(=CC(=O)[C@@H]4[C@@]5(C)C/C(=C\c6ccccc6)C(=O)[C@](C)(C(=O)OCc6ccccc6)[C@@H]5CC[C@]43C)[C@H]12` the same measures were 37% and greater than 50 µM.
`C[C@H]1[C@H](C)CC[C@]2(C)CC[C@]3(C)C(=CC(=O)[C@@H]4[C@@]5(C)CC[C@@H](OC(=O)COc6ccc(-c7cc(-c8ccccc8)[nH]n7)cc6)[C@](C)(C(=O)O)[C@@H]5CC[C@]43C)[C@H]12`: the inhibition in test [1] came out at 66%. For the same molecule, the GI50 in the test with PC-3 [2] turned out to be 7.8 µM.
On to `C[C@H]1[C@H](C)CC[C@]2(C)CC[C@]3(C)C(=CC(=O)[C@@H]4[C@@]5(C)CC[C@@H](OC(=O)CN6CCOCC6)[C@](C)(C(=O)O)[C@@H]5CC[C@]43C)[C@H]12`, for which the inhibition in test [1] stood at 78%. For the same molecule, in the test on PC-3 [2], the GI50 is 10.6 µM.
Turning to `CCN(CC)CC(=O)O[C@@H]1CC[C@@]2(C)[C@@H](CC[C@]3(C)[C@@H]2C(=O)C=C2[C@@H]4[C@@H](C)[C@H](C)CC[C@]4(C)CC[C@]23C)[C@@]1(C)C(=O)O`, the inhibition in test [1] is 58%. Halving of growth with PC-3 [2] (GI50) required 10.7 µM.
For `C[C@H]1[C@H](C)CC[C@]2(C)CC[C@]3(C)C(=CC(=O)[C@@H]4[C@@]5(C)C/C(=C\C(=O)O)C(=O)[C@](C)(C(=O)N6CCOCC6)[C@@H]5CC[C@]43C)[C@H]12`, in test [1], the inhibition is 82%. The molecule further gave a GI50 with PC-3 [2] of 2.78 µM. In addition, the IC50 in test [3] was 2.68 µM.
With `C[C@H]1[C@H](C)CC[C@]2(C)CC[C@]3(C)C(=CC(=O)[C@@H]4[C@@]5(C)CC[C@@H](OC(=O)CN6CCNCC6)[C@](C)(C(=O)O)[C@@H]5CC[C@]43C)[C@H]12`, the inhibition in test [1] was found to be 49%. The same molecule gave a GI50 in the test on PC-3 [2] greater than 50 µM.
With `C[C@H]1[C@H](C)CC[C@]2(C)CC[C@]3(C)C(=CC(=O)[C@@H]4[C@@]5(C)C/C(=C\C(=O)O)C(=O)[C@](C)(C(=O)OCc6ccccc6)[C@@H]5CC[C@]43C)[C@H]12`, the Activity is 67.62% with PC-3 [4], “Dose-dependent effect” in the test with PC-3 [5], 62.35% in the test with PC-3 [6] and 72% in the test on PC-3 [7]. Further, in test [1], the inhibition is 97%. The same molecule came in with a GI50 in the test on PC-3 [2] of 1.82 µM. Further, in test [3], the IC50 came out at 0.46 µM.
Regarding `C[C@H]1[C@H](C)CC[C@]2(C)CC[C@]3(C)C(=CC(=O)[C@@H]4[C@@]5(C)CC[C@@H](OC(=O)CN6CCN(C)CC6)[C@](C)(C(=O)O)[C@@H]5CC[C@]43C)[C@H]12`, the inhibition in test [1] is 24%. This molecule also registered a concentration for 50% growth inhibition (GI50) in the test on PC-3 [2] of 37.9 µM.
Take `C[C@H]1[C@H](C)CC[C@]2(C)CC[C@]3(C)C(=CC(=O)[C@@H]4[C@@]5(C)Cc6c(C(=O)O)n[nH]c6[C@](C)(C(=O)OCc6ccccc6)[C@@H]5CC[C@]43C)[C@H]12`: in test [1], the inhibition came out at 31%. For the same molecule, halving of growth with PC-3 [2] (GI50) required 22.7 µM.
